Converted amounts (≈) assume the structure as drawn. “And” between values parts separate entries of the source, which are not always exact repeats. Identical values can stand only once. Like-named read-outs stand apart in the source and are kept apart here. One block for each compound: values may come before it.
How the values were obtained:
[1] = system: Aspergillus fumigatus (ATCC strain 90906); experiment: Mold susceptibility test (MIC, CLSI M38A); format: cell-based; settings: Table 4, read-out at 48 hr, range tested 32 ug/ml to 0.03 ug/ml
From the text: To further determine the antifungal activity of the compounds in the new formulation systems the inventors investigated the efficacy of the various agents against additional strains of mucor and Aspergillus (The Rhizomucor was a clinical isolate from a patient isolate) and the Aspergillus fumigatus (ATCC strain 90906) used was as previously described. Again, the susceptibility tests were set-up using the standardized test method (CLSI M38A). The used drugs were provided in the described final use-formulation VE-acetone/PEG/D5W. All drugs were diluted in RPMI-Mops medium: YeastOne, Sensititer (Lot 151416SA, expiration date in 2011).
Briefly, susceptibility tests were set-up using a standardized methodology (CLSI M38A). Drugs were diluted into RPMI-Mops medium (Yeast One Broth (Sensititer, product Y3462, Trek Diagnostic Systems, Cleveland, Ohio) Sensititer Lot number 151416SA—expiration date 2011). Two different strains of […] were tested, the standardized evaluation/read out was performed at 24 hours after the start of each culture. The tests were repeated twice and all MIC values (minimum inhibitory concentration) determined as an average of the two experiments.

[2] = system: Mucorales (Rhizopus lab strain); experiment: Mold susceptibility test (MIC); format: cell-based; settings: Table 4, read-out at 48 hr, range tested 32 ug/ml to 0.03 ug/ml
[3] = Plasma clearance of Itraconazole and Posaconazole after IV injection in mice; format: in vivo, Swiss Webster mice
Protocol: To avoid analytical interference from endogenous plasma proteins in the chromatogram when assaying Itra and Posa in plasma samples, an extraction/purification step utilizing precipitation of protein material with acetonitrile was performed. Briefly, plasma proteins were precipitated by adding acetonitrile to a final volume ratio plasma:acetonitrile of 1:2. The mixture was vortexed for 30 seconds and centrifuged for 5 min. at 14,000 rpm in an Eppendorff microcentrifuge. The deproteinated supernatant, containing Itra, was injected into the HPLC to determine the drug concentration.

[4] = system: Rhizomucor sp. [Lab-Z is derived from patient 041511]; experiment: Mold susceptibility test (MIC, CLSI M38A); format: cell-based; settings: at 48 hr, in novel solvent
[5] = system: Aspergillus fumigatus [LAB-A from patient AF 040 511]; experiment: Mold susceptibility test (MIC, CLSI M38A); format: cell-based; settings: at 48 hr, in novel solvent

- MIC [1]: 0.12 µg/mL (≈ 0.17 µM)
- MIC [2]: 0.6 µg/mL (≈ 0.85 µM)
Structure (SMILES): CCC(C)n1ncn(-c2ccc(N3CCN(c4ccc(OCC5COC(Cn6cncn6)(c6ccc(Cl)cc6Cl)O5)cc4)CC3)cc2)c1=O (stereo not drawn) [Itra/D, itraconazole]

- plasma concentration, individual ([3]; 5 mg/kg IV, mice, 10 min): 3.86 µg/mL and 3.59 µg/mL and 2.13 µg/mL
- plasma concentration, individual ([3]; 5 mg/kg IV, mice, 30 min): 1.93 µg/mL
- plasma concentration, individual ([3]; 5 mg/kg IV, mice, 120 min): 0.77 µg/mL
- concentration at 10 min ([3]; Swiss Webster, mouse, plasma, intravenous, 5 mg/kg, 5 mg/kg IV, mice, 10 min, read-out: plasma concentration, individual): 3340 ng/mL
- concentration at 10 min ([3]; Swiss Webster, mouse, plasma, intravenous, 5 mg/kg, 5 mg/kg IV, mice, 10 min, read-out: plasma concentration, mean): 3230 ng/mL
- concentration at 30 min ([3]; Swiss Webster, mouse, plasma, intravenous, 5 mg/kg, 5 mg/kg IV, mice, 30 min, read-out: plasma concentration, individual): 1310 ng/mL
- concentration at 30 min ([3]; Swiss Webster, mouse, plasma, intravenous, 5 mg/kg, 5 mg/kg IV, mice, 30 min, read-out: plasma concentration, mean): 1620 ng/mL
- concentration at 60 min ([3]; Swiss Webster, mouse, plasma, intravenous, 5 mg/kg, 5 mg/kg IV, mice, read-out: plasma concentration, individual): 770 ng/mL
- concentration at 60 min ([3]; Swiss Webster, mouse, plasma, intravenous, 5 mg/kg, 5 mg/kg IV, mice, read-out: plasma concentration, mean): 770 ng/mL
- concentration at 120 min ([3]; Swiss Webster, mouse, plasma, intravenous, 5 mg/kg, 5 mg/kg IV, mice, 120 min, read-out: plasma concentration, individual): 640 ng/mL
- concentration at 120 min ([3]; Swiss Webster, mouse, plasma, intravenous, 5 mg/kg, 5 mg/kg IV, mice, 120 min, read-out: plasma concentration, mean): 710 ng/mL
Structure (SMILES): CCC(C)n1ncn(-c2ccc(N3CCN(c4ccc(OCC5COC(Cn6cncn6)(c6ccc(Cl)cc6Cl)O5)cc4)CC3)cc2)c1=O (stereo not drawn) [Itraconazole, itraconazole]

- MIC [1]: 0.03 µg/mL (≈ 0.0428 µM)
- MIC [2]: 0.12 µg/mL (≈ 0.171 µM)
Structure (SMILES): CC[C@@H]([C@H](C)O)n1ncn(-c2ccc(N3CCN(c4ccc(OC[C@@H]5CO[C@@](Cn6cncn6)(c6ccc(F)cc6F)C5)cc4)CC3)cc2)c1=O [Posa/D, posaconazole]

- plasma concentration ([3]; 5 mg/kg BW in mice, from ten minutes to at least 2 hours after drug injection): 3 to 5 µg/mL
- plasma concentration, individual ([3]; 5 mg/kg IV, mice, 2.0 hours): 4.85 µg/mL and 5.03 µg/mL and 4.21 µg/mL
- plasma concentration, individual ([3]; 5 mg/kg IV, mice, 7.0 hours): 3.86 µg/mL
- plasma concentration, individual ([3]; 5 mg/kg IV, mice, 24 hours): 0.03 µg/mL and 0.56 µg/mL and 0.47 µg/mL
- plasma concentration, individual ([3]; 5 mg/kg IV, mice, 30 hours): 0.14 µg/mL and 0.29 µg/mL and 0.04 µg/mL
- concentration at 0.2 hours ([3]; Swiss Webster, mouse, plasma, intravenous, 5 mg/kg, 5 mg/kg IV, mice, 0.2 hours): 3680 ng/mL
- concentration at 2 hours ([3]; Swiss Webster, mouse, plasma, intravenous, 5 mg/kg, 5 mg/kg IV, mice, 2.0 hours, read-out: plasma concentration, individual): 4990 ng/mL
- concentration at 2 hours ([3]; Swiss Webster, mouse, plasma, intravenous, 5 mg/kg, 5 mg/kg IV, mice, 2.0 hours, read-out: plasma concentration, mean): 4770 ng/mL
- concentration at 7 hours ([3]; Swiss Webster, mouse, plasma, intravenous, 5 mg/kg, 5 mg/kg IV, mice, 7.0 hours, read-out: plasma concentration, individual): 2610 ng/mL
- concentration at 7 hours ([3]; Swiss Webster, mouse, plasma, intravenous, 5 mg/kg, 5 mg/kg IV, mice, 7.0 hours, read-out: plasma concentration, mean): 3230 ng/mL
- concentration at 24 hours ([3]; Swiss Webster, mouse, plasma, intravenous, 5 mg/kg, 5 mg/kg IV, mice, 24 hours): 350 ng/mL
- concentration at 30 hours ([3]; Swiss Webster, mouse, plasma, intravenous, 5 mg/kg, 5 mg/kg IV, mice, 30 hours): 160 ng/mL
- MIC [4]: 0.04 µg/mL (≈ 0.0571 µM)
- MIC [5]: 0.04 µg/mL (≈ 0.0571 µM)
Structure (SMILES): CC[C@@H]([C@H](C)O)n1ncn(-c2ccc(N3CCN(c4ccc(OC[C@@H]5CO[C@@](Cn6cncn6)(c6ccc(F)cc6F)C5)cc4)CC3)cc2)c1=O [Posaconazole, posaconazole]
- plasma concentration, individual ([3]; 5 mg/kg IV, mice, 0.2 hours): 3.43 µg/mL and 1.88 µg/mL and 4.59 µg/mL and 4.82 µg/mL
